These are literature values, as cited in US20260083754A1, “CORTICOSTEROID CONTAINING ORALLY DISINTEGRATING TABLET COMPOSITIONS FOR EOSINOPHILIC ESOPHAGITIS” (Ellodi Pharmaceuticals, L.P., priority 2013, published 2026).

The subject of series [1] is EoE patients.
The subject of series [2] is adolescent and adult patients with active EoE. To be noted: 15-day course, 1 mg twice daily.

`CCC(=O)O[C@]1(C(=O)SCF)[C@H](C)C[C@H]2[C@@H]3C[C@H](F)C4=CC(=O)C=C[C@]4(C)[C@@]3(F)[C@@H](O)C[C@@]21C` [FP, fluticasone propionate]: the “patients who achieved histologic remission” value in series [1] (FP-treated patients, placebo 9%, P=0.047) is 50%. Further, the esophageal eosinophil levels entry in series [1] (more pronounced effect in non-allergic individuals) is listed as “decreased”.

Take `CCCC1O[C@@H]2C[C@H]3[C@@H]4CCC5=CC(=O)C=C[C@]5(C)[C@H]4[C@@H](O)C[C@]3(C)[C@]2(C(=O)CO)O1` (stereo partly drawn) [budesonide]: the tolerability entry in series [2] is given as “well tolerated”.
